Laboratory results: patent publication US20250268903A1, “RXFP1 AGONISTS” (BRISTOL-MYERS SQUIBB COMPANY, priority 2021, published 2025)

Target: T1, human RXFP1 (Homo sapiens, UniProt Q9HBX9)
T1 construct: expressed in transfected cells
T1 sequence (Q9HBX9 1-757): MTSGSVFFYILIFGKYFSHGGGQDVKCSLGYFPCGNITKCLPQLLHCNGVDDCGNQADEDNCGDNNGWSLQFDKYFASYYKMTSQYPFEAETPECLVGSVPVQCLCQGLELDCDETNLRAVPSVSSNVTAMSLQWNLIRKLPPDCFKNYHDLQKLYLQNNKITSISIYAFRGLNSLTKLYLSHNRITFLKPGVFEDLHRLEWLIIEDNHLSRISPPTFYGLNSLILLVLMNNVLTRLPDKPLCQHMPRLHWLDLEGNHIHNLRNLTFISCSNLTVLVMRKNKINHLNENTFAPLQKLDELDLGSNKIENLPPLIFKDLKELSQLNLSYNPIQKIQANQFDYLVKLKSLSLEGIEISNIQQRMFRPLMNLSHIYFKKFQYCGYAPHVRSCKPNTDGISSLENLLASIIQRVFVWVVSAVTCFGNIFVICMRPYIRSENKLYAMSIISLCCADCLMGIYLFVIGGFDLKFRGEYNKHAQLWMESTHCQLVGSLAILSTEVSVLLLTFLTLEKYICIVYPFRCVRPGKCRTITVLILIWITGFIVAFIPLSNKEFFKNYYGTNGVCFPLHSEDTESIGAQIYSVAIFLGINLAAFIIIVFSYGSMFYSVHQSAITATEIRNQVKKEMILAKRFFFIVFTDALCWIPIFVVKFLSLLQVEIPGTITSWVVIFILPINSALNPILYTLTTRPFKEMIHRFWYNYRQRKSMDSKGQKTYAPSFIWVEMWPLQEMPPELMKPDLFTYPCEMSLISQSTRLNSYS
Assay: hRXFP1 HEK293 cAMP assay (HTRF)
Assay type: cell-based
Settings: HEK293 cells stably expressing human RXFP1, 30 min at room temperature
How it was run: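 In a stable human RXFP1 HEK293 line, compounds acted for 30 min at RT in buffer with 0.5 mM IBMX. HTRF then quantified cellular cAMP.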

| SMILES | EC50 [nM] |
| --- | --- |
| COc1ccc(C#CCCCCO)cc1C(=O)N[C@@H]1C2CCC(/C2=C/C(F)(F)F)[C@@H]1C(=O)Nc1ccc(F)c(C(F)(F)F)c1 (stereo partly drawn) [Example 78, (2S,4R,7Z)-N-[4-fluoro-3-(trifluoromethyl)phe-nyl]-3-[5-(6-hydroxyhex-1-yn-1-yl)-2-methoxybenzamido]-7-(2,2,2-trifluoroethylidene)bi-cyclo[2.2.1]heptane-2-carboxamide] | 229 |
| COc1ccc(C#CCCOC(=O)NC2CCC2)cc1C(=O)N[C@@H]1C2CCC(/C2=C/C(F)(F)F)[C@@H]1C(=O)Nc1ccc(F)c(C(F)(F)F)c1 (stereo partly drawn) [Example 79, 4-(3-{[(2R,3S,7Z)-3-{[4-fluoro-3-(trifluoromethyl)phe-nyl]carbamoyl}-7-(2,2,2-trifluoroethylidene)bi-cyclo[2.2.1]heptan-2-yl]carbamoyl}-4-methoxyphenyl)but-3-yn-1-yl N-cyclobutylcarbamate] | 104 |
| COc1ccc(C#CCCCOC(=O)NC2CCC2)cc1C(=O)N[C@@H]1C2CCC(/C2=C/C(F)(F)F)[C@@H]1C(=O)Nc1ccc(F)c(C(F)(F)F)c1 (stereo partly drawn) [Example 80, 5-(3-{[(2R,3S,7Z)-3-{[4-fluoro-3-(trifluoromethyl)phe-nyl]carbamoyl}-7-(2,2,2-trifluoroethylidene)bi-cyclo[2.2.1]heptan-2-yl]carbamoyl}-4-methoxyphenyl)pent-4-yn-1-yl N-cyclobutylcarbamate] | 303 |
| COc1ccc(C#CCCCCOC(=O)NC2CCC2)cc1C(=O)N[C@@H]1C2CCC(/C2=C/C(F)(F)F)[C@@H]1C(=O)Nc1ccc(F)c(C(F)(F)F)c1 (stereo partly drawn) [Example 81, 6-(3-{[(2R,3S,7Z)-3-{[4-fluoro-3-(trifluoromethyl)phe-nyl]carbamoyl}-7-(2,2,2-trifluoroethylidene)bi-cyclo[2.2.1]heptan-2-yl]carbamoyl}-4-methoxyphenyl)hex-5-yn-1-yl N-cyclobutylcarbamate] | 373 |
| COc1ccc(CCC(C)(C)O)cc1C(=O)N[C@@H]1C2CCC(/C2=C/C(F)(F)F)[C@@H]1C(=O)Nc1ccc(F)c(C(F)(F)F)c1 (stereo partly shown) [Example 82] | 125 |
| COc1ccc(CCC(C)C)cc1C(=O)N[C@@H]1C2CCC(/C2=C/C(F)(F)F)[C@@H]1C(=O)Nc1ccc(F)c(C(F)(F)F)c1 (stereo partly shown) [Example 83] | 1710 |
| CCCc1ccc(OC)c(C(=O)N[C@@H]2C3CCC(/C3=C/C(F)(F)F)[C@@H]2C(=O)Nc2ccc(F)c(C(F)(F)F)c2)c1 (stereo partly drawn) [Example 85, (2S,3R,7Z)-N-[4-fluoro-3-(trifluoromethyl)phe-nyl]-3-(2-methoxy-5-propylbenzamido)-7-(2,2,2-trifluoroethylidene)bi-cyclo[2.2.1]heptane-2-carboxamide] | 3000 |
| COc1ccc(CCCO)cc1C(=O)N[C@@H]1C2CCC(/C2=C/C2CC2)[C@@H]1C(=O)Nc1ccc(F)c(C(F)(F)F)c1 (stereo partly drawn) [Example 91, (2S,3R,7Z)-7-(cyclopropylmethyli-dene)-N-[4-fluoro-3-(trifluoromethyl)phe-nyl]-3-[5-(3-hydroxypropyl)-2-methoxybenzamido] bicyclo[2.2.1]heptane-2-carboxamide] | 70 |
| COc1ccc(CC[C@H](C)O)cc1C(=O)N[C@@H]1C2CCC(/C2=C/C(F)(F)F)[C@@H]1C(=O)Nc1ccc(F)c(C(F)(F)F)c1 (stereo partly drawn) [Example 92, (2S,3R,7Z)-N-[4-fluoro-3-(trifluoromethyl)phe-nyl]-3-{5-[(3S)-3-hydroxybutyl]-2-methoxybenzamido}-7-(2,2,2-trifluoroethylidene)bi-cyclo[2.2.1]heptane-2-carboxamide] | 172 |
| COc1ccc(CC[C@@H](C)O)cc1C(=O)N[C@@H]1C2CCC(/C2=C/C(F)(F)F)[C@@H]1C(=O)Nc1ccc(F)c(C(F)(F)F)c1 (stereo partly drawn) [Example 93, (2S,3R,7Z)-N-[4-fluoro-3-(trifluoromethyl)phe-nyl]-3-{5-[(3R)-3-hydroxybutyl]-2-methoxybenzamido}-7-(2,2,2-trifluoroethylidene)bi-cyclo[2.2.1]heptane-2-carboxamide] | 248 |
| COc1ccc(CCCCCO)cc1C(=O)N[C@@H]1C2CCC(/C2=C/C(F)(F)F)[C@@H]1C(=O)Nc1ccc(F)c(C(F)(F)F)c1 (stereo partly drawn) [Example 97, (2S,3R,7Z)-N-[4-fluoro-3-(trifluoromethyl)phe-nyl]-3-[5-(5-hydroxypentyl)-2-methoxybenzamido]-7-(2,2,2-trifluoroethylidene)bi-cyclo[2.2.1]heptane-2-carboxamide] | 82 |
| COc1ccc(CCCCO)cc1C(=O)N[C@@H]1C2CCC(/C2=C/C(F)(F)F)[C@@H]1C(=O)Nc1ccc(F)c(C(F)(F)F)c1 (stereo partly drawn) [Example 98, (2S,3R,7Z)-N-[4-fluoro-3-(trifluoromethyl)phe-nyl]-3-[5-(4-hydroxybutyl)-2-methoxybenzamido]-7-(2,2,2-trifluoroethylidene)bi-cyclo[2.2.1]heptane-2-carboxamide] | 111 |
| COc1ccc(CCCCCCO)cc1C(=O)N[C@@H]1C2CCC(/C2=C/C(F)(F)F)[C@@H]1C(=O)Nc1ccc(F)c(C(F)(F)F)c1 (stereo partly drawn) [Example 99, (2S,3R,7Z)-N-[4-fluoro-3-(trifluoromethyl)phe-nyl]-3-[5-(6-hydroxyhexyl)-2-methoxybenzamido]-7-(2,2,2-trifluoroethylidene)bi-cyclo[2.2.1]heptane-2-carboxamide] | 268 |

Stronger by EC50, values ahead:

| EC50 [nM] | SMILES |
| --- | --- |
| 67 | COc1ccc(CCCO)cc1C(=O)N[C@@H]1C2CCC(/C2=C/C(F)(F)F)[C@@H]1C(=O)Nc1ccc(F)c(C(F)(F)F)c1 (stereo partly drawn) [Example 84, (2S,3R,7Z)-N-[4-fluoro-3-(trifluoromethyl)phe-nyl]-3-[5-(3-hydroxypropyl)-2-methoxybenzamido]-7-(2,2,2-trifluoroethylidene)bi-cyclo[2.2.1]heptane-2-carboxamide] |
| 62 | COc1ccc(C#CCCCO)cc1C(=O)N[C@@H]1C2CCC(/C2=C/C(F)(F)F)[C@@H]1C(=O)Nc1ccc(F)c(C(F)(F)F)c1 (stereo partly drawn) [Example 77, (2S,3R,7Z)-N-[4-fluoro-3-(trifluoromethyl)phe-nyl]-3-[5-(5-hydroxypent-1-yn-1-yl)-2-methoxybenzamido]-7-(2,2,2-trifluoroethylidene)bi-cyclo[2.2.1]heptane-2-carboxamide] |
| 62 | COc1ccc(CC[C@H](C)O)cc1C(=O)N[C@@H]1C2CCC(/C2=C/C2CC2)[C@@H]1C(=O)Nc1ccc(F)c(C(F)(F)F)c1 (stereo partly drawn) [Example 94, (2S,3R,7Z)-7-(cyclopropylmethyli-dene)-N-[4-fluoro-3-(trifluoromethyl)phe-nyl]-3-{5-[(3S)-3-hydroxybutyl]-2-methoxybenzamido} bicyclo[2.2.1]heptane-2-carboxamide] |
| 50 | COc1ccc(CC[C@@H](C)O)cc1C(=O)N[C@@H]1C2CCC(/C2=C/C2CC2)[C@@H]1C(=O)Nc1ccc(F)c(C(F)(F)F)c1 (stereo partly drawn) [Example 95, (2S,3R,7Z)-7-(cyclopropylmethyli-dene)-N-[4-fluoro-3-(trifluoromethyl)phe-nyl]-3-{5-[(3R)-3-hydroxybutyl]-2-methoxybenzamido} bicyclo[2.2.1]heptane-2-carboxamide] |
| 46 | COc1ccc(CCCCO)cc1C(=O)N[C@@H]1C2CCC(/C2=C/C2CCC2)[C@@H]1C(=O)Nc1ccc(F)c(C(F)(F)F)c1 (stereo partly drawn) [Example 96, (2S,3R,7Z)-7-(cyclobutylmethyli-dene)-N-[4-fluoro-3-(trifluoromethyl)phe-nyl]-3-[5-(4-hydroxybutyl)-2-methoxybenzamido] bicyclo[2.2.1]heptane-2-carboxamide] |
| 45 | COc1ccc(CCCO)cc1C(=O)N[C@@H]1C2CCC(/C2=C/C2CCC2)[C@@H]1C(=O)Nc1ccc(F)c(C(F)(F)F)c1 (stereo partly drawn) [Example 86, (2S,3R,7Z)-7-(cyclobutylmethyli-dene)-N-[4-fluoro-3-(trifluoromethyl)phe-nyl]-3-[5-(3-hydroxypropyl)-2-methoxybenzamido] bicyclo[2.2.1]heptane-2-carboxamide] |
| 45 | CCCC/C=C1\C2CCC1[C@H](C(=O)Nc1ccc(F)c(C(F)(F)F)c1)[C@@H]2NC(=O)c1cc(CCC(C)(C)O)ccc1OC (stereo partly drawn) [Example 89, (2S,3R,7Z)-N-[4-fluoro-3-(trifluoromethyl)phe-nyl]-3-[5-(3-hydroxy-3-methylbutyl)-2-methoxybenzamido]-7-pentylidenebicyclo [2.2.1]heptane-2-carboxamide] |
| 14 | COc1ccc(CCC(C)(C)O)cc1C(=O)N[C@@H]1C2CCC(/C2=C/C2CC2)[C@@H]1C(=O)Nc1ccc(F)c(C(F)(F)F)c1 (stereo partly drawn) [Example 90, (2S,3R,7Z)-7-(cyclopropylmethyli-dene)-N-[4-fluoro-3-(trifluoromethyl)phe-nyl]-3-[5-(3-hydroxy-3-methylbutyl)-2-methoxybenzamido] bicyclo[2.2.1]heptane-2-carboxamide] |
| 9 | COc1ccc(CCC(C)(C)O)cc1C(=O)N[C@@H]1C2CCC(/C2=C/C2CCC2)[C@@H]1C(=O)Nc1ccc(F)c(C(F)(F)F)c1 (stereo partly drawn) [Example 87, (2S,3R,7Z)-7-(cyclobutylmethyli-dene)-N-[4-fluoro-3-(trifluoromethyl)phe-nyl]-3-[5-(3-hydroxy-3-methylbutyl)-2-methoxybenzamido] bicyclo[2.2.1]heptane-2-carboxamide] |
